# pIC50: −log10 of the molar value. Read-outs that look alike come from different tables or passages of the source.
# Legend:
# [1] = molecular target: T1, lysosomal acid lipase (LAL) protein (Homo sapiens, UniProt P38571); test: Cellular thermal shift assay, LAL; format: binding; details: 10 μM, SUM-159 cells
# T1 construct: heat stability of LAL or vinculin protein in SUM-159 cells; endogenous in cells; host or cells: SUM-159
# Description: Cellular Thermal Shift Assay (CETSA): Cellular Thermal Shift Assays were performed as described previously^36. Briefly, cells were treated with DMSO or 10 μM ERX-41 for 30 min, then trypsinized, pelleted and resuspended in PBS supplemented with Halt protease inhibitor cocktail (Thermo Scientific), with DMSO or 10 μM ERX-41. Resuspended cells were aliquoted into PCR strips. The cells were incubated in thermal cycler (Bio-rad) at gradient temperatures for 3 minutes, followed by incubation at 25° C. for 3 minutes. Then cells were snap-frozen in liquid nitrogen. Freeze-thaw the cells twice using liquid nitrogen. Then transfer samples into Eppendorf tubes, followed by briefly vortex and centrifuge at 20,000 g for 20 minutes at 4° C. Mix cleared cell lysates with ⅓ volume of 4× Laemmli sample buffer. After boiling, cell lysates were resolved in SDS-PAGE followed by western blotting.
# [2] = test system: ERα-positive cell lines; test: WST assay, ERα-positive cell lines; format: cell-based; details: Homo sapiens, read-out: anti-proliferative IC50, WST
# Description: (§1) Cell viability assays: Cells were seeded in 96-well plates (2×10^3 cells/well) one day before the treatment. Cells were treated with varying concentrations of ERX-41 or ERX-11 analogs for 3-6 days. Then effects of ERX-41 or ERX-11 analogs on cell viability were measured in triplicate or sextuplicate with multiple biological replicates using the WST-1 (Promega), MTT as previously described^33 or CellTiter-Glo 2.0 (Promega) assays.
# [3] = test system: ERα-positive breast cancer cells (MCF-7, ZR-75); test: MTT cell viability, ERα-positive breast cancer cells; format: cell-based, Human; details: Homo sapiens, MCF-7 and ZR-75, read-out: anti-proliferative IC50
# Description: as §1
# [4] = test system: MDA-MB-231 cells with LIPA KO; test: CellTiter-Glo response of MDA-MB-231 knockout clones; format: cell-based, Human
# Description: as §1
# CRISPR Screen: Human Brunello CRISPR knockout pooled library was purchased from Addgene (Addgene #73178) (via David Root and John Doench). The library containing lentivirus was transduced into cells in biological replicates or triplicates at a multiplicity of infection (MOI) of ˜0.5 and a minimum of 500× coverage. Two days later after transduction, uninfected cells were removed with puromycin selection. The library containing cells was treated with vehicle or ERX-41 for 2 weeks. Genomic DNA was extracted from same number of cells. The sgRNA cassette retrieved by PCR, followed by Next Generation Sequencing (NGS). NGS data was analyzed by MAGeCK (Li et al., Genome Biology, 2014 PMID: 25476604).
# Lentiviral constructs cloning: LentiCRISPRv2 vector was used for CRSPR KO experiments. sgRNAs, which were chosen from human CRISPR knockout pooled library, were cloned into lentiCRISPRv2 vector^34. […]
# [5] = test system: TNBC cells (SUM-159, MDA-MB-231); test: MTT cell viability, TNBC cells; format: cell-based, Human; details: for pIC50: MTT cell viability assays, read-out: antiproliferative IC50 against TNBC cells
# Description: as §1
# [6] = test system: ovarian cancer PDX (OCa-PDX-38); test: Ovarian cancer PDX OCa-PDX-38; format: in vivo, NSG mice; details: 10 mg/kg daily
# Description: Animal Studies: All animal experiments were performed using UTHSA and UTSW IACUC approved protocols. For cell based xenograft tumor assays, TNBC cells (2×10^5-2×10^6) were mixed with an equal volume of matrigel and implanted in the mammary fat pads of 6-week-old female athymic nude mice as described^33. BALB/c mice were used for D2A1 syngeneic model. Once tumors reached measurable size, mice were divided into control (vehicle) and ERX-41 (10 mg/kg/oral) treatment groups. Mice bearing TNBC PDX tumors were purchased from Jackson laboratory (TM00089; TM00096; TM00098). TNBC PDX line UTPDX0001 establishment was earlier described^38. WHIM-20 ER+PDX model was purchased from Horizon Labs. OCa-PDX-38 was received from UTHSA ObGyn tissue procurement core. When tumors reached ˜750 mm^3 they were dissected into 2 mm^3 pieces and implanted into the mammary fat pads of 6 weeks old female SCID or NSG mice. When the tumor volume reached ˜200 mm^3, mice were randomized for treatment. The mice were monitored daily for adverse toxic effects and tumor volume was measured every 3-4 days using calipers. For establishing ES2 tumors, ES2/GFP/LUC cells were injected i.p. and tumors were measured twice a week using Xenogen in vivo imaging system. […] The mice were monitored daily for adverse toxic effects. […] The sections were scored by two independent evaluators blinded to the patient's clinical status.
# [7] = test system: HSPA5, DDIT3, sXBP1 mRNA in TNBC cells; test: RT-qPCR of ER stress / UPR genes, TNBC cells; format: cell-based, Human
# Description: Real-time quantitative PCR (RT-qPCR): Total RNA was prepared from breast cancer cells using the RNeasy Mini Kit (Qiagen) according to the manufacturer protocols. Subsequently, total RNAs were reverse transcribed into cDNA using iScript Reverse Transcription Supermix (Bio-rad) and by using SYBR Green on an Illumina Real-Time PCR system.
# T1 sequence (P38571 77-399): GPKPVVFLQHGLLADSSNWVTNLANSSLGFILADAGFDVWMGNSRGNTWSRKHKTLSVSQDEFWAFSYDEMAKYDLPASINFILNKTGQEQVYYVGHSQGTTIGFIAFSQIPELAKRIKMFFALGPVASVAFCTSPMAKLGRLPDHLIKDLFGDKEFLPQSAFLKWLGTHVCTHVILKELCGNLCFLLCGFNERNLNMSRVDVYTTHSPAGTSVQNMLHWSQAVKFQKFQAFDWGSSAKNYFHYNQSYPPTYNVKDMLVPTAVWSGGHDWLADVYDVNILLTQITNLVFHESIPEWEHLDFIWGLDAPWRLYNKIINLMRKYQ
smiles,measurement,setting,value
CC(C)COc1cc(C(=O)Nc2ccc(C(=O)N[C@H]3CC[C@H](C)CC3)cc2OCC(C)C)ccc1NC(=O)c1ccc([N+](=O)[O-])c(OCCO)c1 [ERX-41],thermal stability of LAL,[1],stabilize the thermal stability of LAL
same,pIC50,[2],6.00 to 7.30
same,pIC50,[3],6.90 to 7.00
same,effect of LIPA knockout on cytotoxic response,[4],abrogate the cytotoxic response to ERX-41
same,pIC50,[5]; Homo sapiens,6.90 to 7.00
same,pIC50,[5],7.00
same,"enhancement of potency in TNBC, ERX-41 vs ERX-11",[5]; from IC50>10 μM to 100 nM,> 100 fold
same,activity against OCa-PDX-38,[6],has activity against
same,"upregulation of HSPA5, DDIT3, sXBP1 mRNA","[7]; 1 μM, TNBC cells",60-80 fold
same,"expression of sXBP1 and DDIT3, parental SUM-159","[7]; RT-qPCR, parental SUM-159 cells",induces expression of UPR genes sXBP1 and DDIT3
